Here are results for two compounds from US12133855B2, “Lipid-like nanocomplexes and uses thereof” (Trustees of Tufts College, priority 2018, dated 2024).

SMILES strings stand for the structures. Where only a bound is given, the exact number is not on record here.

Series [1] in a line: Thiol-triggered Nile red release. The class given is physicochemical. The protocol: Lipidoids were fabricated into nanoparticles for all delivery applications. Briefly, lipidoids were mixed with sodium acetate buffer (25 mM, pH 5.2), sonicated for 30 min in an ultrasonic bath, followed by another 30 min of vigorous vortexing. The as-prepared blank LNPs were stored at 4° C. For Cy5-RNA/LNP, mRNA/LNP and protein/LNP complexation, blank lipidoid nanoparticles were mixed with RNA molecules or (−30)GFP-Cre protein in PBS buffer (pH 7.4) following our previously reported procedures and incubated at room temperature for another 30 min before use. Typical procedures for Nile red encapsulation are as follows: 5 μL of Nile red stock solution in acetone was added into an empty vial, which was then placed in a vacuum oven to completely remove the organic solvent. Then, a predetermined amount of blank LNP stock solution (1.0 mg/mL) was added into the vial. The mixture was sonicated for 40 min in an ultrasonic bath and stirred overnight at room temperature. The final concentration of Nile red was adjusted to 6.6×10-7 mol L-1 and 6×10-7 mol L-1 for thiol triggered release study and cell incubation, respectively, by diluting with PBS as necessary. Typical procedures for CPT and DiO/DiI FRET pair encapsulation are as follows: 100 μL of DiO/DiI stock solution in MeOH was charged into an empty vial and placed in a vacuum oven to remove the organic solvent. Lipidoids (2.0 mg) in 200 μL of methanol were then added into the vial and stirred to produce a homogeneous solution. Then, 600 μL of DI water was added dropwise in 10 min with continuous stirring. The resulting mixture was dialyzed against DI water for 24 h (Thermo Scientific Slide-A-Lyzer Dialysis Cassette, MWCO=3500 Da), and fresh water was replaced every 4 h. Typical procedures for encapsulation of calcein and doxonorubicin hydrochloride are as follows: precalculated amounts of calcein or Dox stock solutions in DI water was diluted into 800 μL with sodium acetate buffer, and used as the selective solvents to trigger the self-assembly process of lipidoids in methanol (5 mg/mL), respectively. The unloaded calcein or Dox was removed by dialysis against DI water (Thermo Scientific Slide-A-Lyzer Dialysis Cassette, MWCO=3500 Da).
The reduction triggered release behavior of encapsulated cargoes was then studied by using nile red loaded 75-OCholB LNPs (NR/75-OCholB), taking advantage of the microenvironmental polarity sensitive photophysical property of nile red. […] In the meantime, 20 μM Cysteine treated NR/75-OCholB released 4.2% of nile red in 2 h and 6.9% in 6 h, which could be ascribed to the previously discussed minimal structural and morphological changes of the LNPs under the stimulus of low concentration of thiols (FIGS. 11A and 11C). […] Furthermore, the binding affinity of OCholB LNPs with negatively charged macromolecular cargo, Cy5-RNA, was examined. […] Additionally, similar to the responsiveness study, it is reasonable that the cargo release profiles could depend on both of the species and concentrations of the thiols-containing regents. Above all, OCholB LNPs loaded with cargoes are relatively stable in the presence of low concentration of thiols and the triggered release behaviors of cargo molecules with different physicochemical properties (hydrophobic/hydrophilic, low/high molecular weight, etc.) could be expected.

Series [2] is described as follows: Thiol-triggered calcein release (fluorescence dequenching). Conditions: DTT 1 mM, 5 mM and 10 mM, 12 h incubation. It counts as physicochemical. The protocol: Lipidoids were fabricated into nanoparticles for all delivery applications. Briefly, lipidoids were mixed with sodium acetate buffer (25 mM, pH 5.2), sonicated for 30 min in an ultrasonic bath, followed by another 30 min of vigorous vortexing. The as-prepared blank LNPs were stored at 4° C. For Cy5-RNA/LNP, mRNA/LNP and protein/LNP complexation, blank lipidoid nanoparticles were mixed with RNA molecules or (−30)GFP-Cre protein in PBS buffer (pH 7.4) following our previously reported procedures and incubated at room temperature for another 30 min before use. Typical procedures for Nile red encapsulation are as follows: 5 μL of Nile red stock solution in acetone was added into an empty vial, which was then placed in a vacuum oven to completely remove the organic solvent. Then, a predetermined amount of blank LNP stock solution (1.0 mg/mL) was added into the vial. The mixture was sonicated for 40 min in an ultrasonic bath and stirred overnight at room temperature. The final concentration of Nile red was adjusted to 6.6×10-7 mol L-1 and 6×10-7 mol L-1 for thiol triggered release study and cell incubation, respectively, by diluting with PBS as necessary. Typical procedures for CPT and DiO/DiI FRET pair encapsulation are as follows: 100 μL of DiO/DiI stock solution in MeOH was charged into an empty vial and placed in a vacuum oven to remove the organic solvent. […]

The test system of the next series is HeLa cells. Description: Cytotoxicity of anticancer drug loaded nanoparticles (MTT). The settings on record: Dox series; 8 h of exposure, MTT after 48 h of incubation.
The next series concerns Ai14 mice. Description: In vivo genome editing, intramuscular injection, tdTomato expression. More on the design: species or system mouse. The settings on record: single IM dose, day 10. The protocol:
Similar to the in vitro transfection study, lipidoid nanoparticles were prepared for mRNA or protein loading and in vivo delivery. Ai14 mice were housed in a temperature and humidity controlled facility with a 12 h light/dark cycle. Three mice in each group were injected (intravenously or intramuscularly) with Cre mRNA-loaded or (−30)GFP-Cre protein-loaded LNPs formulations. Organs including heart, liver, spleen, lung and kidney from all groups were collected at day 10 (intramuscular injection) or 14 (intravenous injection) after injection. The tissues were fixed overnight in 4% paraformaldehyde (PFA) and dehydrated in 30% sucrose before being froze in OCT and sectioned into 10-15 μm slices. The slices were then collected and stained with DAPI for fluorescence imaging (BZ-X Analyzer fluorescence microscopy).
Cre-loxP system and transgenic Ai14 mouse model were used in the in vivo genome editing study. […] When the Cre recombinase mediated gene reorganization occurs, the STOP cassette could be removed, resulting in the expression of fluorescent tdTomato reporter protein.
Local delivery through intramuscular injection (IM injection; rear leg) using (−30)GFP-Cre protein and Cre mRNA loaded 76-OCholB LNPs (FIG. 17B). Ai14 mice (n=3) received single dose of (−30)GFP-Cre/LNPs (50 μg of protein) or mRMA/LNPs (10 μg of mRNA) injection at day 1 and were sacrificed at day 10. […]

Method for HeLa cells: After 24 h of incubation at 37° C., 5% CO2, Dox, CPT or Oxa loaded nanoparticles were added to the cells and incubated for 8 h followed by media change. The cells were then incubated for another 40 h before cell viability analysis.
Cell viabilities of HeLa and HeLa-DsRed were measured using the standard MTT assay. In a 96-well plate, after incubating HeLa or HeLa-DsRed cells with blank or cargo-loaded nanoparticles, the MTT reagent (5 mg/mL, in 30 μL PBS buffer) was added and the cells were incubated for another 4 h at 37° C. The cell culture media was then carefully removed and 200 μL of DMSO was added to each well. The DMSO solution was then transferred into a clean 96-well plate and the absorbance at 570 nm was recorded by a microplate reader. All experiments were performed in quadruplicate.
Dose-dependent cytotoxicity was then examined.

As for `CCN(CC)CCN(CCC(=O)OCCSSCCNC(=O)OC1CCC2(C)C(=CCC3C2CCC2(C)C(C(C)CCCC(C)C)CCC32)C1)CCC(=O)OCCSSCCNC(=O)OC1CCC2(C)C(=CCC3C2CCC2(C)C(C(C)CCCC(C)C)CCC32)C1` (stereo not drawn) [Lipidoid 75-OCholB], the “encapsulated nile red released” value in series [1] (20 μM Cysteine, 2 h) is listed as 4.2%; in series [1] (20 μM Cysteine, 6 h), 6.9%; in series [1] (1 mM DTT, 2 h) it was 33.5%; in series [1] (1 mM DTT, 6 h), 44.0%; in series [1] (5 mM DTT, 2 h) it was 61.7%; in series [1] (5 mM DTT, 6 h), 84.2%. The “encapsulated nile red released” value in series [1] (10 mM DTT, 2 h) came out at 67.4%; in series [1] (10 mM DTT, 6 h) it was 86.4%. Besides, in series [2], the “increase of calcein fluorescence intensity vs untreated and cysteine treated LNPs” value is recorded as 4.7-6.4 folds. In addition, in the series on HeLa cells, the “cell viability / dose-dependent cytotoxicity” value is given as above 80%.
On to `CC(C)CCCC(C)C1CCC2C3CC=C4CC(OC(=O)NCCSSCCOC(=O)CCN(CCC(=O)OCCSSCCNC(=O)OC5CCC6(C)C(=CCC7C6CCC6(C)C(C(C)CCCC(C)C)CCC76)C5)CCN5CCCC5)CCC4(C)C3CCC12C` (stereo not drawn) [Lipidoid 76-OCholB], for which the “tdTomato fluorescent signals in skeletal muscle” value in the series with Ai14 mice ((−30)GFP-Cre protein loaded, 50 μg protein) is reported as “strong tdTomato fluorescent signals”; in the series on Ai14 mice (Cre mRNA loaded, 10 μg mRNA), “strong tdTomato fluorescent signals”.
